Assay results taken from ChEMBL document CHEMBL1145704, “Absolute Configuration of 2,6-Dimethylheptyl Sulfate and Its Distribution in Ascidiacea” (J Nat Prod, 1997).

Assays:
[1] = tested on: Gambusia affinis; assay: Toxicity in Gambusia affinis upto 100 ug/mL by lethality assay; type: organism-based; details: in vivo
[2] = Toxicity against Artemia salina L EACH; type: organism-based; details: in vivo

CC(C)CCC[C@@H](C)COS(=O)(=O)[O-].[Na+]
Activity [1]: Non-toxic
LC50 [2]: 17.8 µg/mL
